Numbering of substitutions follows the chain as printed. Activity calls are given as the source filed them. The calls are words filed in the database; no cut-off is given here.
What was measured:
[1] = test system: T1, General amino-acid permease GAP1 (Saccharomyces cerevisiae), P19145 [I384C]; experiment: Induction of yeast Gap1 I384C mutant-mediated amino acid uptake at 2 mM in presence of 10 mM MTSEA treated before compound addition
T1 sequence (whole entry): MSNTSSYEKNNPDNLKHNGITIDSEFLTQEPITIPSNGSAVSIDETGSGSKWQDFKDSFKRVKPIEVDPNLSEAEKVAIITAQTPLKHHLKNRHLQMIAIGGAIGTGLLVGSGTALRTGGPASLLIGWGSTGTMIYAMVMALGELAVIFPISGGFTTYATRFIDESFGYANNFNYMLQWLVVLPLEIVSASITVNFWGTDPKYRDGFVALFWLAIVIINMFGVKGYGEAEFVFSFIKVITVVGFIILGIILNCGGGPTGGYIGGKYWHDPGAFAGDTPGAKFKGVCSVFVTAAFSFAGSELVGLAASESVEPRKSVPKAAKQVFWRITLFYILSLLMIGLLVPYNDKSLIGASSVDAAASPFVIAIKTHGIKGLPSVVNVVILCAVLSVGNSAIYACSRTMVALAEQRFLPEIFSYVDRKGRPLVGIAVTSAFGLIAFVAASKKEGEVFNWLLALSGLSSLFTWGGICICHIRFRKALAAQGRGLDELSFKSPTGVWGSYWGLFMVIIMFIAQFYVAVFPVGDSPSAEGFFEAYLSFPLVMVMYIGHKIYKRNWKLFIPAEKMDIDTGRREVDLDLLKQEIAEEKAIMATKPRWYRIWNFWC

[2] = test system: T2, General amino-acid permease GAP1 (Saccharomyces cerevisiae), P19145 [M401C]; experiment: Activation of yeast Gap1 M401C mutant-mediated amino acid uptake at 10 mM
T2 sequence (whole entry): T1 sequence (whole entry) with C384I, M401C

[3] = test system: T3, General amino-acid permease GAP1 (Saccharomyces cerevisiae), P19145 [R399C]; experiment: Induction of yeast Gap1 R399C mutant-mediated trehalose activation at 10 mM
T3 sequence (whole entry): T1 sequence (whole entry) with C384I, R399C

[4] = test system: T4, General amino-acid permease GAP1 (Saccharomyces cerevisiae), P19145 [A403C]; experiment: Induction of yeast Gap1 A403C mutant-mediated amino acid uptake at 2 mM in presence of 10 mM MTSEA treated before compound addition
T4 sequence (whole entry): T1 sequence (whole entry) with C384I, A403C

## NC(=O)NCCC[C@H](N)C(=O)O
[1]
  Activity: Active
[2]
  Activity: inactive
[3]
  Activity: inactive
[4]
  Activity: Active
